The test system of assay [1] is gel-filtered platelets. The assay can be described thus: Inhibition of thrombin-induced gel-filtered platelet aggregation. The class given is cell-based. The note with it: aggregation initiated by human α-thrombin 0.113 nM-0.187 nM, OD 650 at 0 and 5 min. The protocol: (§1) In Vitro Inhibition Of Thrombin- and SFLLRN-NH2-Induced Gel-Filtered Platelet Aggregation Assay
(§2) Platelet Rich Plasma concentrate (Biological Specialties, Inc) is gel filtered (Sepharose 2B, Pharmacia) in Tyrode's buffer (140 mM NaCl, 2.7 mM KCl, 12 mM NaHCO3, 0.76 mM Na2HPO4, 5.5 mM dextrose, 5.0 mM Hepes, and 2 mg/ml BSA @ pH 7.4). The gel-filtered platelets are diluted with Tyrode's buffer (143,000 platelets/μl, final platelet count per well), compound solution in buffer, and 2 mM CaCl2 in a 96 well plate. Platelet aggregation is initiated by the addition of human α-thrombin (American Diagnostica, 0.113 nM-0.187 nM) or SFLLRN-NH2 (2 μM) shown to achieve 80% aggregation (0.015-0.025 NIH U/ml, 0.113 nM-0.187 nM). The assay plate is stirred constantly. Platelet aggregation is monitored by intermittently placing the plate in a microplate reader (Molecular Devices) to read optical density ([…], ΔSOFT) at 0 and 5 minutes after the thrombin addition. Aggregation was calculated to be the decrease in optical density between the time 0 and 5 minute measurements. All samples were tested in duplicate wells on the same plate.
(§3) Table 3 contains IC50 values (μM) of the compounds against platelet aggregation stimulated by thrombin and IC50 values (μM) in a thrombin receptor (PAR-1) binding assay.

Assay [2] has as its system gel-filtered platelets. The assay can be described thus: Inhibition of SFLLRN-NH2-induced gel-filtered platelet aggregation. It counts as cell-based. Particulars: aggregation initiated by SFLLRN-NH2 (2 μM), OD 650 at 0 and 5 min. The protocol: as §1, §2
Assay [3] deals with T1, thrombin receptor (PAR-1) (Homo sapiens, UniProt P25116).
T1 construct: CHRF membranes (Jones, Biochim. Biophys. Acta 1992, 1136, 272) are thawed from −70° C; endogenous in cells; host or cells: CHRF cell membranes (CHRF-288 megakaryoblastic line, per the cited Jones 1992)
T1 sequence (P25116 22-425): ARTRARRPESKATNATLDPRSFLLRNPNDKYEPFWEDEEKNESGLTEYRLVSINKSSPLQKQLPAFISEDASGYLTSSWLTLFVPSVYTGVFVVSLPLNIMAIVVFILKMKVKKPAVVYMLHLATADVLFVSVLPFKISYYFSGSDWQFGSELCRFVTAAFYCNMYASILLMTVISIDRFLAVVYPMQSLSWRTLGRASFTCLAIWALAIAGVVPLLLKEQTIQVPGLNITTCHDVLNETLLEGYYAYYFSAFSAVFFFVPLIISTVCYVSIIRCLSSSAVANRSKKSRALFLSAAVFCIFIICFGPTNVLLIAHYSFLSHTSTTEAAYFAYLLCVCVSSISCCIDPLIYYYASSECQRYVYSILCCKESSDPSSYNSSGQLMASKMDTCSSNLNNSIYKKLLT
In words: In vitro thrombin receptor binding assay (CHRF membranes). The note with it: tritiated 721-40 (Ser-pFPhe-Har-Leu-Har-Lys-Tyr-NH2), 30 min incubation. As for the experimental part:
In Vitro Thrombin Receptor Binding Assay
CHRF membranes (Jones, Biochim. Biophys. Acta 1992, 1136, 272) are thawed from −70° C., centrifuged at maximum speed for 5 min, washed twice with binding buffer (50 mM HEPES containing 5 mM MgCl2 and 0.1% BSA), and re-suspended in binding buffer ([…]). 100 μL of membranes are added to the 24-Wallac plates and delivered to the Tomtech apparatus. In a typical experiment, 6 μL of samples (from a 125 μg/mL intermediary plate, 20% DMSO) and 44 μL buffer are delivered to the plates (final conc. of compounds is 3.7 μg/mL, 0.6% DMSO). Similarly, 6 μL 20% DMSO and 44 μL buffer are delivered to both column 1 (NSB) and column 12 (TB). 10 μL Ser-pFPhe-Har-Leu-Har-Lys-Tyr-NH2 (721-40; 500 μM in deionized water) is added to column 1. 50 μL tritiated 721-40 (specific activity 46 Ci/mmol) is added to all the wells. The plates are mixed well for 20 seconds, incubated for 30 min, and then harvested with 10 mM HEPES/138 mM NaCl using the Skatron harvester. The filters (GF/C Brandel FPXLR 296) are presoaked 3 h in 0.5% polyethylenimine in HEPES/0.1M N-acetylglucosamine) are set in saran wrap and dried for 3 min in the microwave, and placed in sample bags (Wallac 1450-432). 4.5 mL scintillation fluid (Wallac, Betaplate Scint 1205-440) is added. The bags are sealed, placed in filter cassettes (Wallac 1450-104), and analyzed on the microbeta counter.
as §3

Each structure is given as a SMILES string.

As a reminder, the IC50 is the concentration at which inhibition is half-maximal.

As for `CC(=O)N[C@@H](CCCNC(=N)N)C(=O)N[C@@H](CC1CCCCC1)C(=O)Nc1ccc2c(CN3CCCC3)cn(Cc3ccc(F)cc3)c2c1` [Compound 21], the IC50 worked out at 4.7 µM in the assay on gel-filtered platelets [1] (Platelet), 3.2 µM in the assay with gel-filtered platelets [2] (Platelet) and 10.7 µM in assay [3].

For the compound `CCCNCc1cn(Cc2ccc(F)cc2)c2ccc(NC(=O)[C@@H](Cc3ccccc3)NC(=O)[C@@H](CCCNC(=N)N)NC(=O)OC3c4ccccc4-c4ccccc43)cc12` [Compound 1], the results for the IC50 with gel-filtered platelets [1] (Platelet) and with gel-filtered platelets [2] (Platelet) were 51.6 µM and 43.7 µM, respectively.

As for `N=C(N)NCCC[C@H](NC(=O)OCc1ccccc1)C(=O)N[C@@H](Cc1ccccc1)C(=O)Nc1ccc2c(CN3CCCC3)cn(Cc3ccc(F)cc3)c2c1` [Compound 19], the IC50 with gel-filtered platelets [1] (Platelet) was determined as 18.7 µM; with gel-filtered platelets [2] (Platelet) it was 11.1 µM; in assay [3], 2.4 µM.

On to `N=C(N)NCCCC(NC(=O)Cc1ccccc1)C(=O)NC(Cc1ccccc1)C(=O)Nc1ccc2c(c1)c(CN1CCCC1)cn2Cc1ccc(F)cc1` (centres unmarked) [Compound 17, 5-Guanidino-2-phenylacetylamino-pentanoic acid {1-[1-(4-fluoro-benzyl)-3-pyrrolidin-1-ylmethyl-1H-indol-5-ylcarbamoyl]-2-phenyl-ethyl}-amide], for which the IC50 in the assay with gel-filtered platelets [1] was 44.5 µM; in the assay with gel-filtered platelets [2], 9.8 µM; in assay [3] it was 10.4 µM.

(Values after US7618945B2, “Heteroaryl peptidomimetics as thrombin receptor antagonists” (Janssen Pharmaceutica, N.V., priority 2002, dated 2009).)
